Species on record: Rattus norvegicus
Assay: Open TG-GATES - Regimen: Single
Format: toxicity, organism-based, Sprague-Dawley
Design: regimen Single, gender Male, age 6 weeks
Details: in vivo, po, 20 mg/kg, route gavage, dose level Low; for APTT / Bas / Eos / Fbg / Hb / Ht / Lym / MCH / MCHC / MCV / Mono / Neu / PT / Plat / RBC / Ret / WBC: tissue Blood; for KIDNEY_L / KIDNEY_R / KIDNEY_TOTAL: tissue Kidney; for LIVER: tissue Liver; for A/G / ALP / ALT / AST / BUN / CRE / Ca / Cl / DBIL / GLC / IP / K / LDH / Na / PL / RALB / TBIL / TC / TG / TP / gamma-GTP: tissue Plasma

Q: Which TERMINAL_BW (3 h) does the source give for `CC(CN1c2ccccc2Sc2ccccc21)N(C)C` (configuration not stated) [PROMETHAZINE] here?
A: 208 g

Q: What about the APTT (3 h) of the same molecule?
A: 23.7 s

Q: What about the Bas (3 h) of the same molecule?
A: 0%

Q: And the Eos (3 h)?
A: 0.6%

Q: And the Fbg (3 h)?
A: 325.8 mg/dL

Q: What about the Hb (3 h) of the same molecule?
A: 13.5 g/dL

Q: What about the Ht (3 h) of the same molecule?
A: 41.2%

Q: What about the Lym (3 h) of the same molecule?
A: 81.4%

Q: And the MCH (3 h)?
A: 20.7 pg

Q: What about the MCHC (3 h) of the same molecule?
A: 32.7%

Q: What about the MCV (3 h) of the same molecule?
A: 63.3 fL

Q: What about the Mono (3 h) of the same molecule?
A: 2.2%

Q: What about the Neu (3 h) of the same molecule?
A: 15.4%

Q: What about the PT (3 h) of the same molecule?
A: 16.4 s

Q: What about the Plat (3 h) of the same molecule?
A: 114.7 x10_4/uL

Q: What about the RBC (3 h) of the same molecule?
A: 651.2 x10_4/ul

Q: What about the Ret (3 h) of the same molecule?
A: 8.2%

Q: And the WBC (3 h)?
A: 78 x10_2/uL

Q: What about the KIDNEY_L (3 h) of the same molecule?
A: 0.9 g

Q: What about the KIDNEY_R (3 h) of the same molecule?
A: 0.9 g

Q: What about the KIDNEY_TOTAL (3 h) of the same molecule?
A: 1.8 g

Q: And the LIVER (3 h)?
A: 9.2 g

Q: And the A/G (3 h)?
A: 1.2

Q: What about the ALP (3 h) of the same molecule?
A: 1475 IU/L

Q: What about the ALT (3 h) of the same molecule?
A: 53.2 IU/L

Q: What about the AST (3 h) of the same molecule?
A: 73.6 IU/L

Q: What about the BUN (3 h) of the same molecule?
A: 10.6 mg/dL

Q: What about the CRE (3 h) of the same molecule?
A: 0.2 mg/dL

Q: What about the Ca (3 h) of the same molecule?
A: 10.5 mg/dL

Q: And the Cl (3 h)?
A: 105.8 meq/L

Q: And the DBIL (3 h)?
A: 0.018 mg/dL

Q: What about the GLC (3 h) of the same molecule?
A: 177.8 mg/dL

Q: What about the IP (3 h) of the same molecule?
A: 9.1 mg/dL

Q: What about the K (3 h) of the same molecule?
A: 4.3 meq/L

Q: What about the LDH (3 h) of the same molecule?
A: 202.2 IU/L

Q: And the Na (3 h)?
A: 142.4 meq/L

Q: And the PL (3 h)?
A: 140.2 mg/dL

Q: And the RALB (3 h)?
A: 2.9 g/dL

Q: What about the TBIL (3 h) of the same molecule?
A: 0.02 mg/dL

Q: And the TC (3 h)?
A: 82 mg/dL

Q: And the TG (3 h)?
A: 60.4 mg/dL

Q: And the TP (3 h)?
A: 5.4 g/dL

Q: What about the gamma-GTP (3 h) of the same molecule?
A: 1.2 IU/L

Q: And the TERMINAL_BW (6 h)?
A: 211.9 g

Q: What about the APTT (6 h) of the same molecule?
A: 22.9 s

Q: What about the Bas (6 h) of the same molecule?
A: 0%

Q: And the Eos (6 h)?
A: 0.6%

Q: What about the Fbg (6 h) of the same molecule?
A: 315 mg/dL

Q: What about the Hb (6 h) of the same molecule?
A: 13.2 g/dL

Q: What about the Ht (6 h) of the same molecule?
A: 40%

Q: And the Lym (6 h)?
A: 83.4%

Q: What about the MCH (6 h) of the same molecule?
A: 20.5 pg

Q: What about the MCHC (6 h) of the same molecule?
A: 33.1%

Q: What about the MCV (6 h) of the same molecule?
A: 62.1 fL

Q: What about the Mono (6 h) of the same molecule?
A: 2.2%

Q: What about the Neu (6 h) of the same molecule?
A: 13.2%

Q: And the PT (6 h)?
A: 16.9 s

Q: And the Plat (6 h)?
A: 118.2 x10_4/uL

Q: And the RBC (6 h)?
A: 644.8 x10_4/ul

Q: What about the Ret (6 h) of the same molecule?
A: 7.8%

Q: What about the WBC (6 h) of the same molecule?
A: 108.7 x10_2/uL

Q: And the KIDNEY_L (6 h)?
A: 0.9 g

Q: What about the KIDNEY_R (6 h) of the same molecule?
A: 1 g

Q: What about the KIDNEY_TOTAL (6 h) of the same molecule?
A: 1.9 g

Q: What about the LIVER (6 h) of the same molecule?
A: 9 g

Q: What about the A/G (6 h) of the same molecule?
A: 1.3

Q: And the ALP (6 h)?
A: 1313.4 IU/L

Q: What about the ALT (6 h) of the same molecule?
A: 41.2 IU/L

Q: And the AST (6 h)?
A: 72.2 IU/L

Q: And the BUN (6 h)?
A: 10.4 mg/dL

Q: What about the CRE (6 h) of the same molecule?
A: 0.2 mg/dL

Q: What about the Ca (6 h) of the same molecule?
A: 10.9 mg/dL

Q: What about the Cl (6 h) of the same molecule?
A: 105.4 meq/L

Q: What about the DBIL (6 h) of the same molecule?
A: 0.014 mg/dL

Q: What about the GLC (6 h) of the same molecule?
A: 178.8 mg/dL

Q: And the IP (6 h)?
A: 9.7 mg/dL

Q: And the K (6 h)?
A: 4.3 meq/L

Q: What about the LDH (6 h) of the same molecule?
A: 161 IU/L

Q: What about the Na (6 h) of the same molecule?
A: 141.4 meq/L

Q: And the PL (6 h)?
A: 131.2 mg/dL

Q: What about the RALB (6 h) of the same molecule?
A: 3.1 g/dL

Q: And the TBIL (6 h)?
A: 0.03 mg/dL

Q: What about the TC (6 h) of the same molecule?
A: 76.2 mg/dL

Q: What about the TG (6 h) of the same molecule?
A: 69.8 mg/dL

Q: And the TP (6 h)?
A: 5.5 g/dL

Q: And the gamma-GTP (6 h)?
A: 1.2 IU/L

Q: And the TERMINAL_BW (9 h)?
A: 213 g

Q: And the APTT (9 h)?
A: 22.5 s

Q: And the Bas (9 h)?
A: 0%

Q: And the Eos (9 h)?
A: 0.4%

Q: What about the Fbg (9 h) of the same molecule?
A: 311.4 mg/dL

Q: And the Hb (9 h)?
A: 13 g/dL

Q: And the Ht (9 h)?
A: 39.2%

Q: What about the Lym (9 h) of the same molecule?
A: 77.8%

Q: What about the MCH (9 h) of the same molecule?
A: 20.2 pg

Q: What about the MCHC (9 h) of the same molecule?
A: 33%

Q: What about the MCV (9 h) of the same molecule?
A: 61.3 fL

Q: And the Mono (9 h)?
A: 2%

Q: And the Neu (9 h)?
A: 18.6%

Q: And the PT (9 h)?
A: 16.8 s

Q: And the Plat (9 h)?
A: 119.8 x10_4/uL

Q: And the RBC (9 h)?
A: 639.8 x10_4/ul

Q: And the Ret (9 h)?
A: 7.2%

Q: And the WBC (9 h)?
A: 108 x10_2/uL

Q: What about the KIDNEY_L (9 h) of the same molecule?
A: 1 g

Q: And the KIDNEY_R (9 h)?
A: 1 g

Q: What about the KIDNEY_TOTAL (9 h) of the same molecule?
A: 1.9 g

Q: And the LIVER (9 h)?
A: 8.6 g

Q: What about the A/G (9 h) of the same molecule?
A: 1.2

Q: And the ALP (9 h)?
A: 1421.2 IU/L

Q: What about the ALT (9 h) of the same molecule?
A: 43.4 IU/L

Q: And the AST (9 h)?
A: 69 IU/L

Q: And the BUN (9 h)?
A: 11.4 mg/dL

Q: And the CRE (9 h)?
A: 0.2 mg/dL

Q: And the Ca (9 h)?
A: 10.9 mg/dL

Q: What about the Cl (9 h) of the same molecule?
A: 105 meq/L

Q: And the DBIL (9 h)?
A: 0.008 mg/dL

Q: What about the GLC (9 h) of the same molecule?
A: 183.8 mg/dL

Q: And the IP (9 h)?
A: 10.2 mg/dL

Q: What about the K (9 h) of the same molecule?
A: 4.3 meq/L

Q: What about the LDH (9 h) of the same molecule?
A: 152.8 IU/L

Q: And the Na (9 h)?
A: 140.8 meq/L

Q: What about the PL (9 h) of the same molecule?
A: 123.2 mg/dL

Q: And the RALB (9 h)?
A: 2.9 g/dL

Q: And the TBIL (9 h)?
A: 0.018 mg/dL

Q: And the TC (9 h)?
A: 72.2 mg/dL

Q: And the TG (9 h)?
A: 51.4 mg/dL

Q: What about the TP (9 h) of the same molecule?
A: 5.4 g/dL

Q: What about the gamma-GTP (9 h) of the same molecule?
A: 1.4 IU/L

Q: What about the TERMINAL_BW (24 h) of the same molecule?
A: 220.8 g

Q: What about the APTT (24 h) of the same molecule?
A: 22.2 s

Q: What about the Bas (24 h) of the same molecule?
A: 0%

Q: What about the Eos (24 h) of the same molecule?
A: 0.8%

Q: And the Fbg (24 h)?
A: 317.2 mg/dL

Q: What about the Hb (24 h) of the same molecule?
A: 13.4 g/dL

Q: And the Ht (24 h)?
A: 39.8%

Q: What about the Lym (24 h) of the same molecule?
A: 79.8%

Q: And the MCH (24 h)?
A: 20.8 pg

Q: What about the MCHC (24 h) of the same molecule?
A: 33.6%

Q: What about the MCV (24 h) of the same molecule?
A: 62 fL

Q: What about the Mono (24 h) of the same molecule?
A: 2.4%

Q: And the Neu (24 h)?
A: 16.4%

Q: What about the PT (24 h) of the same molecule?
A: 16.6 s

Q: What about the Plat (24 h) of the same molecule?
A: 117.2 x10_4/uL

Q: What about the RBC (24 h) of the same molecule?
A: 643.4 x10_4/ul

Q: What about the Ret (24 h) of the same molecule?
A: 7.2%

Q: And the WBC (24 h)?
A: 125.3 x10_2/uL

Q: What about the KIDNEY_L (24 h) of the same molecule?
A: 0.9 g

Q: What about the KIDNEY_R (24 h) of the same molecule?
A: 0.9 g

Q: And the KIDNEY_TOTAL (24 h)?
A: 1.9 g

Q: What about the LIVER (24 h) of the same molecule?
A: 10.1 g

Q: And the A/G (24 h)?
A: 1.3

Q: What about the ALP (24 h) of the same molecule?
A: 1645.6 IU/L

Q: What about the ALT (24 h) of the same molecule?
A: 49.8 IU/L

Q: And the AST (24 h)?
A: 76 IU/L

Q: And the BUN (24 h)?
A: 17.4 mg/dL

Q: And the CRE (24 h)?
A: 0.2 mg/dL

Q: What about the Ca (24 h) of the same molecule?
A: 11 mg/dL

Q: What about the Cl (24 h) of the same molecule?
A: 106 meq/L

Q: And the DBIL (24 h)?
A: 0 mg/dL

Q: And the GLC (24 h)?
A: 188 mg/dL

Q: And the IP (24 h)?
A: 6.8 mg/dL

Q: What about the K (24 h) of the same molecule?
A: 4.1 meq/L

Q: What about the LDH (24 h) of the same molecule?
A: 154 IU/L

Q: What about the Na (24 h) of the same molecule?
A: 142.6 meq/L

Q: What about the PL (24 h) of the same molecule?
A: 146.2 mg/dL

Q: What about the RALB (24 h) of the same molecule?
A: 3.1 g/dL

Q: What about the TBIL (24 h) of the same molecule?
A: 0.002 mg/dL

Q: What about the TC (24 h) of the same molecule?
A: 78.2 mg/dL

Q: What about the TG (24 h) of the same molecule?
A: 109.2 mg/dL

Q: And the TP (24 h)?
A: 5.5 g/dL

Q: And the gamma-GTP (24 h)?
A: 1.6 IU/L
